Results on eight compounds are retold here after patent US20240116985A1, “STAPLED PEPTIDES AND METHODS THEREOF” (priority 2020, published 2024).

Test [1] addresses T1, full-length beta-Catenin (Uniprot ID P35222) (Homo sapiens, UniProt P35222).
T1 construct: 10 nM full-length beta-Catenin (Uniprot ID P35222)
T1 sequence (P35222 1-781): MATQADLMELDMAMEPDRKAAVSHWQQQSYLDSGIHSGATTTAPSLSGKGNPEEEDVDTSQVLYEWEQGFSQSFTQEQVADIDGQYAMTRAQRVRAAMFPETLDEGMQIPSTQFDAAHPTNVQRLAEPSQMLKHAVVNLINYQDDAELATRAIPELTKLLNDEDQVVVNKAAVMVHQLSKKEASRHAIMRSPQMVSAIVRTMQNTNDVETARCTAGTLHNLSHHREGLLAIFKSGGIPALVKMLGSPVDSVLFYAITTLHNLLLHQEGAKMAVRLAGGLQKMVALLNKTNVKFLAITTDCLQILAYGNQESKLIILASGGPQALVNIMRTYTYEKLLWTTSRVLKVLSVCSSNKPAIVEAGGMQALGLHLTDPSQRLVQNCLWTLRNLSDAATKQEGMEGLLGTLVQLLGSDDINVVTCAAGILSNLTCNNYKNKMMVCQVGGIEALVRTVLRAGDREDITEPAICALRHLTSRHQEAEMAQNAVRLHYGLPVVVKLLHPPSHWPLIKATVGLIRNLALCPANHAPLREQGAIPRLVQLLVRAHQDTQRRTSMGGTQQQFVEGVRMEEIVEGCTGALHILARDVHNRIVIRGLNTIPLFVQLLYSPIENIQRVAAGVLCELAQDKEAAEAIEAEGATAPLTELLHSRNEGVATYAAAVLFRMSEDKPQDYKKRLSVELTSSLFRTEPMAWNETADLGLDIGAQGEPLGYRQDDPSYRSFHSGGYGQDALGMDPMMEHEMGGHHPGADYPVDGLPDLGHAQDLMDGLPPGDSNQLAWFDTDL
The experiment in a line: Fluorescence polarization IC50 (beta-catenin / 5FAM-TCF4 10-53 competition). The class given is binding. The following applies: read-out: beta-Catenin FP IC50. A general note: Fluorescence polarisation rises when a labelled molecule tumbles more slowly, as on binding a larger partner.

For test [2], the target named is T2, beta-catenin/TCF4 engagement (Homo sapiens, UniProt P35222).
T2 construct: expressed in transfected cells; host or cells: HEK293
T2 sequence (P35222 1-781): T1 sequence (P35222 1-781)
The experiment in a line: Nano-BRET target engagement assay (B-cat-Halo & TCF4-Luc in HEK293 cells). Type of test: cell-based. The following applies: absolute IC50; read-out: NanoBRET Abs IC50. In general terms: Bioluminescence resonance energy transfer reports proximity on the nanometre scale.

In test [3] the test system is TCF/LEF luciferase Reporter in DLD1 cells. The test is described as follows: TCF reporter assay (DLD1 TCF/LEF luciferase reporter, Bright-Glo). The class given is cell-based. To be noted: absolute IC50. The source says: Those skilled in the art will appreciate that other suitable reagents may be utilized and various parameters may be adjusted.
DLD1 reporter cell line was generated by using TCF/LEF luciferase Reporter Lentivirus (BPS Bioscience Catalog #79787). Parental DLD1 cells (ATCC@ CCL-221) were transfected with the lentivirus and followed by 3-day puromycin selection. Single clone was selected for Reporter assay.
On Day 1, cultured cells in flasks that are no more than about 60-70% confluent were washed with PBS and typsinized in 3 mL/T75 until cells were free floating. Spin down cells for 5 minutes at 1100RPM. While cells spin, determine the number of plates (3 compounds per plate) needed. After spinning, aspirate the supernatant gently and add 10 mL media (RPMI+4% FBS), and re-suspend and mix the cells gently. Count the cells twice in the cell counter Countess and take average of both the counts, and determine how many cells are needed. After plating cells at 5000 cells/well, seal with aerseal film. 90 uL cells/well. Incubate at 37° C. overnight, tap gently to mix and don't stack plates.
On Day 2, compounds were added. Stock solution was 10 mM. Make the DMSO containing media by adding 36 uL DMSO to 10 mL of media. Make the dilution wells by transferring 100 uL DMSO+Media into rows B-F of a protein LoBind 96-well plate. Row G is empty. Add any extra DMSO+media to row H. Transfer 4 uL of stock solution to Row A. One compound per column. Add 196 uL media to Row A, no DMSO in the media. Concentration of Row A was 200 uM. Mix well and do a 6 pt, 1:2 serial dilution, mix ×10 per transfer and change tips before each transfer. Removed excess volume from final well (row F) and discard. Transfer 10 uL of the compound containing media to cells with a multichannel according to plate maps. Add 60 uL DMSO containing media to the DMSO wells. The edge wells were typically not used in the assay and could be ignored if needed or replaced with PBS, but there typically were liquids in the wells. Cover plates with breathable plate sealer and incubate overnight.
A 96-well plate may be utilized to prepare dilution series for up to 12 compounds, each with several concentrations (e.g., 200, 100, 50, 25, 12.5, 6.25 and 0 uM; can be utilized as 100× depending on final test concentrations).
0 uM is the DMSO control for the whole plate. Edge well filled with 90 uL cells+10 uL DMSO containing media.
On Day 3, luciferase levels were assessed using Bright-Glo (Promega). Equilibrate Bright-Glo to room temperature before addition. 7 mL of mixed Bright-Gbo per plate. Unused Bright-Glo could be store at −80° C. Reconstituted reagent can be stored for up to 1 month at −80° C., or after one freeze-thaw. When ready to read, remove plates from incubator and let sit at room temperature for 15 minutes. Typically stagger taking out plates if reading multiple plates before adding the Bright-Glo. Add 90 uL/well Bright-Glo and shake gently for 3 minutes. Read luminescence on GloMax immediately using ‘BrightGlo’ programs.
Cellular activity was assessed using CTG. Equilibrate CTG reagents to room temperature. Equilibrate plates to room temp, e.g. 15 min. Use same time length for all plates. Add CTG reagent, 25 uL if using undiluted, or 90 uL if diluted 1 to 4. Shake for 2 min to induce cell lysis. Allow plate to incubate at RT for 10 min to stabilize lumine sent signal. Read luminesence using program ‘CellTiter-Glo’. Use Prism to find the Absolute IC50 (AbsIC50=X[50]) of each compound.
For orientation: In a reporter assay the amount or activity of a reporter protein is the signal.

[4] abbreviates: read-out: DLD1 4% Abs IC50, DLD1 reporter assay, 4%.
Setting [5] is: read-out: DLD1 reporter assay Abs IC50.
Where [6] appears, read: read-out: DLD1 4% Abs IC50, DLD1 reporter, 4%.

The structures appear in SMILES notation. Read-outs that look alike come from different tables or passages of the source. Where only a bound is given, the exact number is not on record here.

Take `CC(=O)N1CCC[C@]12CC=CCCCC1(CCCC=CCCCOC(=O)N3CC[C@@](C(=O)N[C@@H](Cc4ccsc4)C(=O)N[C@@H](Cc4csc5ccccc45)C(=O)N[C@@H](CO)C(N)=O)(C3)NC(=O)[C@H](CC(C)C)NC(=O)[C@H](Cc3ccccc3)NC(=O)[C@H](C)NC(=O)[C@H](C)NC(=O)[C@H](Cc3ccccc3C(=O)O)NC(=O)[C@H](CC(=O)O)NC1=O)NC(=O)[C@H](CC(C)(C)C)NC(=O)[C@H](CC(=O)O)NC2=O` (single isomer, unassigned) [I-1667, Ac-PL3-Asp-Npg-B5-Asp-2COOHF-Ala-Ala-Phe-Leu-PyrS2-3Thi-BztA-Ser-NH2]: the IC50 (in general, the concentration that gives 50% inhibition) in test [1] (fluorescence polarization) stood at 0.013 µM; in test [2] it was 5.6 µM; in test [3] (setting [4]), 1.3 µM.

As to `CC(=O)N1CCC[C@]12CC=CCCCC1(CCCC=CCCCOC(=O)N3CC[C@@](C(=O)N[C@@H](Cc4ccsc4)C(=O)N[C@@H](Cc4csc5ccccc45)C(=O)N[C@H](CO)[C@@H](C)O)(C3)NC(=O)[C@H](CC(C)C)NC(=O)[C@H](Cc3ccccc3)NC(=O)[C@H](C)NC(=O)[C@H](C)NC(=O)[C@H](Cc3ccccc3C(=O)O)NC(=O)[C@H](CC(=O)O)NC1=O)NC(=O)[C@H](CC(C)(C)C)NC(=O)[C@H](CC(=O)O)NC2=O` (single isomer, unassigned) [I-1671, Ac-PL3-Asp-Npg-B5-Asp-2COOHF-Ala-Ala-Phe-Leu-PyrS2-3Thi-BztA-Thro1], the IC50 in test [1] (fluorescence polarization) is 0.028 µM; in test [2] it was 8 µM; in test [3] (setting [4]), 1.7 µM.

As to `CC(=O)N1CCC[C@]12CC=CCCCC1(CCCC=CCCCOC(=O)N3CC[C@@](C(=O)N[C@@H](Cc4ccsc4)C(=O)N[C@@H](Cc4csc5ccccc45)C(=O)N[C@@H](CCC(N)=O)C(=O)O)(C3)NC(=O)[C@H](CC(N)=O)NC(=O)[C@H](Cc3ccccc3)NC(=O)[C@H](C)NC(=O)[C@H](C)NC(=O)[C@H](CC(=O)O)NC(=O)[C@H](CC(=O)O)NC1=O)NC(=O)[C@H](CC(C)(C)C)NC(=O)[C@H](CC(=O)O)NC2=O` (stereo partly drawn) [I-1025, Ac-PL3-Asp-Npg-B5-Asp-Asp-Ala-Ala-Phe-Asn-PyrS2-3Thi-BztA-Gln-OH], the IC50 in test [1] is 0.005 µM; in test [2], 23.6 µM; in test [3] (setting [5]), more than 20 µM.

On to `CC(=O)N1CCC[C@]12CC=CCCCC1(CCCC=CCCCOC(=O)N3CC[C@@](C(=O)N[C@@H](Cc4ccsc4)C(=O)N[C@@H](Cc4csc5ccccc45)C(=O)N[C@@H](CCC(N)=O)C(=O)O)(C3)NC(=O)[C@H](CC(N)=O)NC(=O)[C@H](Cc3ccccc3)NC(=O)[C@H](C)NC(=O)[C@H](C)NC(=O)[C@H](CN(CC(=O)O)CC(F)(F)F)NC(=O)[C@H](CC(=O)O)NC1=O)NC(=O)[C@H](CC(C)(C)C)NC(=O)[C@H](CC(=O)O)NC2=O` (stereo partly drawn) [I-1026, Ac-PL3-Asp-Npg-B5-Asp-TfeGA-Ala-Ala-Phe-Asn-PyrS2-3Thi-BztA-Gln-OH], for which the IC50 in test [1] is 0.005 µM; in test [2] it was 16.7 µM; in test [3] (setting [5]) it was more than 20 µM.

In the case of `CCNC(=O)[C@H](CCC(N)=O)NC(=O)[C@H](Cc1csc2ccccc12)NC(=O)[C@H](Cc1ccccc1Cl)NC(=O)[C@]12CCN(C1)C(=O)OCCCC=CCCCC1(CCCC=CC[C@]3(CCCN3C(C)=O)C(=O)N[C@@H](CC(=O)O)C(=O)N[C@@H](CC(C)(C)C)C(=O)N1)C(=O)N[C@@H](CC(=O)O)C(=O)N[C@@H](CN(CC(=O)O)CC(F)(F)F)C(=O)N[C@@H](C)C(=O)N[C@@H](C)C(=O)N[C@@H](Cc1ccccc1)C(=O)N[C@@H]([C@@H](C)O)C(=O)N2` (stereo partly drawn) [I-1240, Ac-PL3-Asp-Npg-B5-Asp-TfeGA-Ala-Ala-Phe-Thr-PyrS2-2C1F-BztA-Gln-NHEt], the IC50 in test [1] (fluorescence polarization) amounted to 0.033 µM; in test [2] it was 11.5 µM; in test [3] (setting [5]) it was 4.9 µM.

For `CC(=O)N1CCC[C@]12CC=CCCCC1(CCCC=CCCCOC(=O)N3CC[C@@](C(=O)N[C@@H](Cc4ccccc4Cl)C(=O)N[C@@H](Cc4csc5ccccc45)C(=O)N[C@H](CO)[C@@H](C)O)(C3)NC(=O)[C@H]([C@@H](C)O)NC(=O)[C@H](Cc3ccccc3)NC(=O)[C@H](C)NC(=O)[C@H](C)NC(=O)[C@H](CN(CC(=O)O)CC(F)(F)F)NC(=O)[C@H](CC(=O)O)NC1=O)NC(=O)[C@H](CC(C)(C)C)NC(=O)[C@H](CC(=O)O)NC2=O` (stereo partly drawn) [I-1241, Ac-PL3-Asp-Npg-B5-Asp-TfeGA-Ala-Ala-Phe-Thr-PyrS2-2C1F-BztA-Thro1], the half-inhibitory concentration (IC50) in test [1] (fluorescence polarization) came out at 0.019 µM; in test [2], 15.7 µM; in test [3] (setting [5]), 3.8 µM.

In the case of `CC(=O)N1CCC[C@]12CC=CCCCC1(CCCC=CCCCOC(=O)N3CC[C@@](C(=O)N[C@@H](Cc4ccccc4Cl)C(=O)N[C@@H](Cc4csc5ccccc45)C(=O)N[C@@H](C)CO)(C3)NC(=O)[C@H]([C@@H](C)O)NC(=O)[C@H](Cc3ccccc3)NC(=O)[C@H](C)NC(=O)[C@H](C)NC(=O)[C@H](CN(CC(=O)O)CC(F)(F)F)NC(=O)[C@H](CC(=O)O)NC1=O)NC(=O)[C@H](CC(C)(C)C)NC(=O)[C@H](CC(=O)O)NC2=O` (stereo partly drawn) [I-1242, Ac-PL3-Asp-Npg-B5-Asp-TfeGA-Ala-Ala-Phe-Thr-PyrS2-2C1F-BztA-Alao1], the IC50 is 0.03 µM in test [1] (fluorescence polarization), more than 20 µM in test [2], 4.8 µM in test [3] (setting [5]) and 3.8 µM in test [3] (setting [6]).

Turning to `CCNC(=O)[C@H](CO)NC(=O)[C@H](Cc1csc2ccccc12)NC(=O)[C@H](Cc1ccccc1Cl)NC(=O)[C@]12CCN(C1)C(=O)OCCCC=CCCCC1(CCCC=CC[C@]3(CCCN3C(C)=O)C(=O)N[C@@H](CC(=O)O)C(=O)N[C@@H](CC(C)(C)C)C(=O)N1)C(=O)N[C@@H](CC(=O)O)C(=O)N[C@@H](CC(=O)O)C(=O)N[C@@H](C)C(=O)N[C@@H](C)C(=O)N[C@@H](Cc1ccccc1)C(=O)N[C@@H]([C@@H](C)O)C(=O)N2` (stereo partly drawn) [I-1244, Ac-PL3-Asp-Npg-B5-Asp-Asp-Ala-Ala-Phe-Thr-PyrS2-2C1F-BztA-Ser-NHEt], the IC50 stood at 0.018 µM in test [1] (fluorescence polarization), 17.7 µM in test [2], 13.9 µM in test [3] (setting [5]) and 15.9 µM in test [3] (setting [6]).
